Reference: ChEMBL document CHEMBL4364295, “Discovery of a First-in-Class Receptor Interacting Protein 2 (RIP2) Kinase Specific Clinical Candidate, 2-((4-(Benzo[d]thiazol-5-ylamino)-6-(tert-butylsulfonyl)quinazolin-7-yl)oxy)ethyl Dihydrogen Phosphate, for the Treatment of Inflammatory Diseases” (J Med Chem, 2019)
Calls of active or inactive are those of the source. No cut-off for these calls is given here.

Columns and labels:
[1] = Dose normalized AUC in Sprague-Dawley rat at 200 mg/kg, po using crystalline sample during 7 day dose ranging study by LC/MS/MS analysis; format: ADME, organism-based; settings: in vivo, 168 h
[2] = AUC in Sprague-Dawley rat assessed as 2-((4-(Benzo[d]thiazol-5-ylamino)-6-(tert-butylsulfonyl)quinazolin-7-yl)oxy)ethanol level at 2 mg/kg, po by LC/MS/MS analysis; format: ADME, organism-based; settings: in vivo
[3] = Clearance in Beagle dog at 2 mg/kg, po or 1.1 mg/kg, iv by LC/MS/MS analysis; format: ADME, organism-based, Canis lupus familiaris; settings: in vivo
[4] = Clearance in human hepatocytes; format: ADME, cell-based, Hepatocyte
[5] = target: Voltage-gated inwardly rectifying potassium channel KCNH2 (Homo sapiens, UniProt Q12809); assay: Inhibition of human ERG (1159 residues) expressed in CHOK1 cells at -80 mV holding potential measured after 5 mins by QPatch electrophysiology method; format: cell-based
[6] = Unbound fraction in human blood; format: ADME, tissue-based
Cricetinae = assay: Displacement of [125I]2-iodomelatonin from hamster MT3 receptor at 10 uM measured after 60 mins by scintillation counting method
[7] = AUC in Gottingen minipig at 1 mg/kg, po by LC/MS/MS analysis; format: ADME, organism-based, Sus scrofa; settings: pig, in vivo
[8] = Unbound fraction in minipig blood; format: ADME, tissue-based, Sus scrofa; settings: pig
[9] = target: Vascular endothelial growth factor receptor 3 (Homo sapiens) (UniProt P35916); assay: Inhibition of human VEGFR3 at 1 uM using poly[Glu:Tyr] (4:1) as substrate in presence of [gamma-33P]ATP relative to control
[10] = Volume of distribution at steady state in Beagle dog at 2 mg/kg, po or 1.1 mg/kg, iv by LC/MS/MS analysis; format: ADME, organism-based, Canis lupus familiaris; settings: in vivo, read-out: Vdss
[11] = Cmax in Sprague-Dawley rat at 2 mg/kg, po by LC/MS/MS analysis; format: ADME, organism-based; set-up: dose 2 mg/kg, route oral; settings: in vivo
[12] = Drug uptake in po dosed Sprague-Dawley rat systemic circulation by LC/MS/MS analysis; format: ADME, organism-based; settings: in vivo
[13] = Cmax in Sprague-Dawley rat at 20 mg/kg, po using crystalline sample during 7 day dose ranging study by LC/MS/MS analysis; format: ADME, organism-based; set-up: dose 20 mg/kg, route oral; settings: in vivo
[14] = Oral bioavailability in Sprague-Dawley rat at 2 mg/kg by LC/MS/MS analysis; format: ADME, organism-based; settings: in vivo
[15] = Clearance in dog hepatocytes; format: ADME, cell-based, Canis lupus familiaris, Hepatocyte
[16] = Cmax in Beagle dog at 2 mg/kg, po by LC/MS/MS analysis; format: ADME, organism-based, Canis lupus familiaris; set-up: dose 2 mg/kg, route oral; settings: in vivo
[17] = AUC in Sprague-Dawley rat at 20 mg/kg, po using crystalline sample during 7 day dose ranging study by LC/MS/MS analysis; format: ADME, organism-based; settings: in vivo
Cytochrome P450 3A4 = Cytochrome P450 3A4 (Homo sapiens, UniProt P08684); assay: Inhibition of CYP3A4 (unknown origin); format: ADME
[18] = Prodrug conversion in human hepatocytes assessed as 2-(4-(benzo[d]thiazol-5-ylamino)-7-(2-hydroxyethoxy)quinazolin-6-ylsulfonyl)-2-methylpropan-1-ol formation at 20 uM measured after 4 hrs; format: ADME, cell-based, Hepatocyte
[19] = Prodrug conversion in human hepatocytes assessed as 2-(4-(benzo[d]thiazol-5-ylamino)-6-(tert-butylsulfonyl)-1,2,3,4-tetrahydroquinazolin-7-yloxy)ethanol formation at 20 uM measured after 4 hrs; format: ADME, cell-based, Hepatocyte
[20] = Drug uptake in Gottingen minipig systemic circulation at 2 mg/kg, po or 1 mg/kg, iv by LC/MS/MS analysis; format: ADME, organism-based, Sus scrofa; settings: pig, in vivo
[21] = Prodrug conversion in human hepatocytes assessed as benzothiazole ring opening at 20 uM measured after 4 hrs; format: ADME, cell-based, Hepatocyte
[22] = Prodrug conversion in rat hepatocytes assessed as hydrogenation at 20 uM measured after 4 hrs; format: ADME, cell-based, Hepatocyte
[23] = Half life in dog intestinal S9 fraction; format: ADME, subcellular, Canis lupus familiaris, Intestine
[24] = Prodrug conversion in minipig hepatocytes assessed as 2-((4-(Benzo[d]thiazol-5-ylamino)-6-(tert-butylsulfonyl)quinazolin-7-yl)oxy)ethanol formation at 20 uM measured after 4 hrs; format: ADME, cell-based, Sus scrofa, Hepatocyte; settings: pig
[25] = Toxicity in Sprague-Dawley rat during 6 week study; settings: in vivo, 1008 h
[26] = Ratio of brain to blood concentration in Han Wistar rat assessed as 2-((4-(Benzo[d]thiazol-5-ylamino)-6-(tert-butylsulfonyl)quinazolin-7-yl)oxy)ethanol level at 2 mg/kg, iv administered as infusion for 4 hrs; format: ADME, organism-based
[27] = Terminal half life in Beagle dog assessed as 2-((4-(Benzo[d]thiazol-5-ylamino)-6-(tert-butylsulfonyl)quinazolin-7-yl)oxy)ethanol level at 2 mg/kg, po or 0.9 mg/kg, iv by LC/MS/MS analysis; format: ADME, organism-based, Canis lupus familiaris; settings: in vivo
[28] = Drug uptake in Han Wistar rat skin at 2 mg/kg, iv administered as infusion for 4 hrs; format: ADME, organism-based, Zone of skin; settings: in vivo
[29] = AUC in Beagle dog assessed as 2-((4-(Benzo[d]thiazol-5-ylamino)-6-(tert-butylsulfonyl)quinazolin-7-yl)oxy)ethanol level at 2 mg/kg, po by LC/MS/MS analysis; format: ADME, organism-based, Canis lupus familiaris; settings: in vivo
[30] = Prodrug conversion in human hepatocytes assessed as oxidation at 20 uM measured after 4 hrs; format: ADME, cell-based, Hepatocyte
[31] = Prodrug conversion in minipig hepatocytes assessed as dephosphorylation at 20 uM measured after 4 hrs; format: ADME, cell-based, Sus scrofa, Hepatocyte; settings: pig
[32] = Cmax in Gottingen minipig assessed as 2-((4-(Benzo[d]thiazol-5-ylamino)-6-(tert-butylsulfonyl)quinazolin-7-yl)oxy)ethanol level at 1 mg/kg, po by LC/MS/MS analysis; format: ADME, organism-based, Sus scrofa; set-up: dose 1 mg/kg, route oral; settings: pig, in vivo
[33] = Volume of distribution at steady state in Beagle dog assessed as 2-((4-(Benzo[d]thiazol-5-ylamino)-6-(tert-butylsulfonyl)quinazolin-7-yl)oxy)ethanol level at 2 mg/kg, po or 0.9 mg/kg, iv by LC/MS/MS analysis; format: ADME, organism-based, Canis lupus familiaris; settings: in vivo
[34] = Volume of distribution at steady state in Gottingen minipig assessed as 2-((4-(Benzo[d]thiazol-5-ylamino)-6-(tert-butylsulfonyl)quinazolin-7-yl)oxy)ethanol level at 2 mg/kg, po or 1 mg/kg, iv by LC/MS/MS analysis; format: ADME, organism-based, Sus scrofa; settings: pig, in vivo

Chain of Voltage-gated inwardly rectifying potassium channel KCNH2 (Q12809 whole entry): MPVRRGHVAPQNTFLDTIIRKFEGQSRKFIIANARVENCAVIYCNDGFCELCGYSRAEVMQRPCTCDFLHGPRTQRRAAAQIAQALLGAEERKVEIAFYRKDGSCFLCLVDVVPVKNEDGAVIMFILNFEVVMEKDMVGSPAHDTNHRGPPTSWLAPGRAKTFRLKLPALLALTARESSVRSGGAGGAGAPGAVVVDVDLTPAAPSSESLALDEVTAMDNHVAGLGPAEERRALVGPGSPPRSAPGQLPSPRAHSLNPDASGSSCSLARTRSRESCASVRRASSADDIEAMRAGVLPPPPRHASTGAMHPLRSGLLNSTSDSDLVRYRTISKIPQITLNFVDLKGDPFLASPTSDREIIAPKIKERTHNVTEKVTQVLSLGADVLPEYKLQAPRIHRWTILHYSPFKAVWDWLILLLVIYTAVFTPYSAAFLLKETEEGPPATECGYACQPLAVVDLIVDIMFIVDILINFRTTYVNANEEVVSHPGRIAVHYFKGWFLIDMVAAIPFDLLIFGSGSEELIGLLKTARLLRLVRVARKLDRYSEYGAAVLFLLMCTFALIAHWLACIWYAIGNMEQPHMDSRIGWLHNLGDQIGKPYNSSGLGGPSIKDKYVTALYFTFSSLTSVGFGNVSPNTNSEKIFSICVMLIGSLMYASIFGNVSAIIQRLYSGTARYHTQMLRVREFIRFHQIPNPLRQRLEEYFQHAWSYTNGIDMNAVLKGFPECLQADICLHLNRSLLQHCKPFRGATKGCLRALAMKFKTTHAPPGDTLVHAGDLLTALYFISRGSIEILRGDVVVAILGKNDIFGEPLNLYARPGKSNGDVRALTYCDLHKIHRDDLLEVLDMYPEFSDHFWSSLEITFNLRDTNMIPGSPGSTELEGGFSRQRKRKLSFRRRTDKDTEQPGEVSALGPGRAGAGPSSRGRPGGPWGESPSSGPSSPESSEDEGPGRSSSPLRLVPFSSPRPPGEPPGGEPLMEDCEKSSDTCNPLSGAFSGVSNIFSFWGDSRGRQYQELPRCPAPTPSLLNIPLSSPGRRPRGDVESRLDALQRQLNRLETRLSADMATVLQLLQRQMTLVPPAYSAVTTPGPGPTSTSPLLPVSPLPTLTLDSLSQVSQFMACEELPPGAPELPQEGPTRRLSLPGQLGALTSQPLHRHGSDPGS
Chain of Cytochrome P450 3A4 (P08684 whole entry): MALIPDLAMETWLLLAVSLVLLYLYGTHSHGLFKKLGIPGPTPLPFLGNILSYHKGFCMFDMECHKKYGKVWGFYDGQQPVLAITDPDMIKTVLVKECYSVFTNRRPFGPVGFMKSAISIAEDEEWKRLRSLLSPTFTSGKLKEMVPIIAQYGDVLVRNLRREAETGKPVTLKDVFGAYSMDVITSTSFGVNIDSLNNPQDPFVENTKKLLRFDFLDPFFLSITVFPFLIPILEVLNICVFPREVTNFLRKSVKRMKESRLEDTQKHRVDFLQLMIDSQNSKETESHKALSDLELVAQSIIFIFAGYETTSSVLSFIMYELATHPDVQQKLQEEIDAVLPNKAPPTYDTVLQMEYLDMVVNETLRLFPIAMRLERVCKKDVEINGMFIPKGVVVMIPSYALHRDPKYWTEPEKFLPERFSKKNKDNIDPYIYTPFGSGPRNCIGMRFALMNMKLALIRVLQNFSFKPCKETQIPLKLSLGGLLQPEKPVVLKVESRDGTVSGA
Chain of Vascular endothelial growth factor receptor 3 (Homo sapiens) (P35916 whole entry): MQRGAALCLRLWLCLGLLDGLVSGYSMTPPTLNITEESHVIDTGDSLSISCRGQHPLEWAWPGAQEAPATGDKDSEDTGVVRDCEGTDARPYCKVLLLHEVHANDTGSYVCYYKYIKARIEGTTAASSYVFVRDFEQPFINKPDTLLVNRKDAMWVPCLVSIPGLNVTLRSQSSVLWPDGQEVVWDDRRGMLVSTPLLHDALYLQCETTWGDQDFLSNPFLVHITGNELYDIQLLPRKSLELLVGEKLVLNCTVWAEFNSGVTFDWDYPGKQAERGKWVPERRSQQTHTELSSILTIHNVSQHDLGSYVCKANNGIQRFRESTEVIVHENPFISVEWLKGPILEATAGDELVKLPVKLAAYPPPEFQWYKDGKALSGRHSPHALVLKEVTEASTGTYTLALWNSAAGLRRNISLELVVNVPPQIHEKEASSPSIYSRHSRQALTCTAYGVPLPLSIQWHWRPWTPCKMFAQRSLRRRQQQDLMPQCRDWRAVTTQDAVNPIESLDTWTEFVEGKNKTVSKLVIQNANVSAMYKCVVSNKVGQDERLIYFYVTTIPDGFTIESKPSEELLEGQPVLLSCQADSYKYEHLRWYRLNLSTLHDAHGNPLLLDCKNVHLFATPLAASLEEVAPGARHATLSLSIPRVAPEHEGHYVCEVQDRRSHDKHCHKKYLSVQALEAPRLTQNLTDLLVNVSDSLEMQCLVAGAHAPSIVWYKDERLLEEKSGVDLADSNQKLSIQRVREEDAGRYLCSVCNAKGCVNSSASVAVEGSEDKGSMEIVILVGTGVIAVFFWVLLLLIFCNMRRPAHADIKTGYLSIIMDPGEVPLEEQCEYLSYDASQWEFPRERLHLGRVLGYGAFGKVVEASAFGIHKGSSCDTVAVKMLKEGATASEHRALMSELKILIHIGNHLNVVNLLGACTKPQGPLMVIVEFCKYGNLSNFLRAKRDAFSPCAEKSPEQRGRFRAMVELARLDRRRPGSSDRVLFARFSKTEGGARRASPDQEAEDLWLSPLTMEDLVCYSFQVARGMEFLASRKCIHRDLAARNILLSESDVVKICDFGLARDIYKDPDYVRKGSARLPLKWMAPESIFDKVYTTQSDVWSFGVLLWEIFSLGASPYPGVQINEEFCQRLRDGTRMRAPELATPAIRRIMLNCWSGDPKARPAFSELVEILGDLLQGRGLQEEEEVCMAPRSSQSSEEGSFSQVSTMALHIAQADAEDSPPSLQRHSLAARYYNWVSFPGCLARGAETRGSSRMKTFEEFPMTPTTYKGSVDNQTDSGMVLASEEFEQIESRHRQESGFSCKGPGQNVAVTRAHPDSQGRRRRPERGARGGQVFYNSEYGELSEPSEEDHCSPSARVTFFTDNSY

With `CC(C)(C)S(=O)(=O)c1cc2c(Nc3ccc4scnc4c3)ncnc2cc1OCCO` the AUC/dose [1] was 0.21 kg·h/L, the AUC [2] was 460 ng·h/mL and the clearance [3] was 9.9 mL/min/kg. It also gave a CLH [4] of less than 0.48 mL/min/g, an IC50 [5] greater than 30 µM and a fraction unbound [6] of 0.069. For the same compound, the inhibition (Cricetinae) was “Active”, the AUC [7] was 85 ng·h/mL and the fraction unbound [8] was 0.068. For the same compound, the inhibition [9] was greater than 90%, the Vd [10] was 2.6 L/kg and the Cmax [11] was 120 ng/mL. For the same compound, the Drug uptake [12] was “Not Active”, the Cmax [13] was 900 ng/mL and the bioavailability [14] was 39%. The CLH [15] was 0.65 mL/min/g, the Cmax [16] was 470 ng/mL and the AUC at 168 h [17] was 8800 ng·h/mL.

With `CC(C)(C)S(=O)(=O)c1cc2c(Nc3ccc4scnc4c3)ncnc2cc1OCCOP(=O)(O)O.[CaH2]` the IC50 (Cytochrome P450 3A4) was greater than 30 µM, the AUC [2] was 580 ng·h/mL and the Drug metabolism [18] was “Metabolite_Detected”. For the same compound, the IC50 [5] was greater than 30 µM, the Drug metabolism [19] was “Metabolite_Detected” and the Drug uptake [20] was “Not Active”. For the same compound, the Drug metabolism [21] was “Metabolite_Detected”, the Drug metabolism [22] was “Metabolite_Detected” and the half-life [23] was 8 min. The Drug metabolism [24] was “Metabolite_Detected”, the Drug uptake [12] was “Not Active” and the Activity [25] was “Non-Toxic”. For the same compound, the Ratio [26] was 0.065, the “beta t1/2” value [27] was 174 min and the Drug uptake [28] was “Not Active”. The AUC [29] was 4400 ng·h/mL, the Drug metabolism [30] was “Metabolite_Detected” and the Drug metabolism [31] was “Metabolite_Detected”. The Cmax [32] was 340 ng/mL, the Vdss [33] was 2 L/kg and the Vdss [34] was 2.1 L/kg.
